Data taken from PubChem BioAssay (NCI).
“And” between values parts separate entries of the source, which are not always exact repeats. Equal values may be shown once.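 These data come from cells grown in 96-well plates and exposed to compound for 48 hours at five concentrations. At the GI50, growth is halved. TGI denotes the concentration required for complete inhibition of growth.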

Assays:
Assay in all cases: DTP human tumour cell line panel, 48 h
[1] = system: SF-268 CNS
[2] = system: SNB-75 CNS
[3] = system: HL-60(TB) leukemia
[4] = system: NCI-H226 lung
[5] = system: NCI-H522 lung
[6] = system: CAKI-1 renal
[7] = system: HOP-62 NSCLC
[8] = system: HCC-2998 colon
[9] = system: SK-MEL-2 melanoma
[10] = system: SNB-19 CNS

SMILES	TGI [1] [µM]	TGI [2]	TGI [3] [µM]	TGI [4] [µM]	TGI [5] [µM]	TGI [6] [µM]	TGI [7]	TGI [8] [µM]	TGI [9]	GI50 [1]	GI50 [2]	GI50 [3] [µM]	GI50 [4] [µM]	GI50 [5]	GI50 [6] [µM]	GI50 [7] [µM]	GI50 [10]	TGI [10]	GI50 [8] [µM]	GI50 [9]
CN1CCCC2(CCCc3ccccc32)C1 (configuration not stated)	> 100	> 100 µM	> 100	> 100	> 100	> 100	> 100 µM	> 100	> 100 µM											
CNC(=O)c1ccc(N2CCN(Cc3ccc4nc(C)c(=O)[nH]c4c3F)CC2)c(F)n1	> 100	63.8 µM	> 100	> 100	> 100	> 100	> 100 µM	> 100	> 100 µM	43.3 µM	16.4 µM	> 100	44.9	21.2 µM	49.4	43.7	34.2 µM	> 100 µM	> 100	76.2 µM
C#CCOc1cccc(-c2ncnc3cc(NC(=O)CCl)ccc23)c1	2.94	9.48 µM	4.36	5.54	1.71	1.76	7.18 µM	2.75	3.78 µM	0.669 µM	1.15 µM	0.536	1.42	0.149 µM	0.2	2.36	1.14 µM	4.86 µM	1.09	1.26 µM
CN(C)CC(C)(C)C(=O)/C=C/c1ccc(/C=C/C(=O)C(C)(C)CN(C)C)cc1	2.86	3.05 µM	4.17	4.93	0.292	2.9	4.51 µM	3.04										4.75 µM		
CCCC(=O)NC1=C(Cl)C(=O)c2ccccc2C1=O	30.2	20.2 µM	0.899	29.9	2.37	10.1	25.7 µM	16.3	6.07 µM									36.4 µM		
C=C(C)C(=O)O[C@H]1C[C@@]23O[C@@H]2CCC(=C[C@H]2OC(=O)C(=C)[C@H]12)COC3O (some centres not stated)	> 100	> 100 µM	48.3	> 100	30.7	> 100	> 100 µM	> 100	> 100 µM									> 100 µM		
[Cl-].[O-]/N=C(\c1ccccc1)c1ccccn1.[O-]/N=C(\c1ccccc1)c1ccccn1.[O-]/N=C(\c1ccccc1)c1ccccn1.[Sm+3]	87.3	31.3 µM	62.1	62.5	75.3	89.5	> 100 µM	> 100	52.8 µM	30 µM	4.49 µM	20.1	24.1	24.6 µM	27.1	28	36 µM	> 100 µM	25.7	22 µM
O=C(CO[N+](=O)[O-])Nc1ccc(C(=O)/C=C/c2ccc(Cl)cc2)cc1	11.7	17.6 µM	> 100	29	8.37	54.5	9.73 µM	3.64	23.3 µM	2.62 µM	3.19 µM	3.59	5.15	2.31 µM	11.8	3.11	4.11 µM	18.4 µM	1.75	9.69 µM
O=C(CP(=O)(O)O)NC(CC(=O)OCc1ccccc1)C(=O)OCc1ccccc1 (configuration not stated)	> 100	> 100 µM	> 100	> 100	> 100	> 100	> 100 µM	> 100	> 100 µM									> 100 µM		
COc1ccc2c(c1)N1CCc3cc(OC)c(OC)cc3C1C2 (configuration not stated)	> 100		> 100	98.7	> 100	> 100	> 100 µM	> 100	> 100 µM									> 100 µM		
COc1cc(OC)cc(N(CCNC(C)C)c2ccc3ncc(-c4cnn(C)c4)nc3c2)c1	19	4.2 µM	22.7	23	23.4	13.3	20 µM	24.9	25 µM	3.53 µM	0.523 µM	7.37	4.53	7.82 µM	2.8	4.63	10.9 µM	24.9 µM	11.2	7.31 µM
CCOC(=O)C1N(S(=O)(=O)c2ccc(C)cc2)CCC12c1ccccc1N(C(C)=O)C2c1ccc(OC)c(OC)c1 (configuration not stated)	> 100	> 100 µM	> 100	> 100	> 100	> 100	> 100 µM	> 100										> 100 µM		
COc1cc(C#Cc2ccc(=O)oc2C#Cc2ccccc2)cc(OC)c1OC	5.85	7.62 µM	40.1	7.41	3.57	4.26	30.9 µM	9.87	12.7 µM	2.38 µM	2.7 µM	4.62	2.59	1.73 µM	2.12	12.2	8.91 µM	34.3 µM	2.6	5.69 µM
COC(=O)CCc1c[nH]c2ccc(N(CCCl)CCCl)cc12	30	11.6 µM	> 100	41	6.02	> 28.4	16.5 µM	27.1	59 µM	1.25 µM	1.04 µM	0.429	1.53	1.79 µM	0.375	1.04	3.43 µM	> 76.2 µM	8.33	9.71 µM
CC(=O)OCC1OC(n2c(-c3ccc(Cl)cc3)ccc(C#N)c2=S)C(OC(C)=O)C(OC(C)=O)C1OC(C)=O (configuration not stated)	> 100	14 µM and 82.9 µM	> 100	> 100	> 100	> 100	26.1 µM and > 100 µM	> 100	45.6 µM and > 100 µM	5.5 µM and 34.9 µM	5.05 µM and 26.9 µM			27.8 µM and 61.6 µM	> 100		14.8 µM and 42.2 µM	58.4 µM and > 100 µM		16 µM and 87 µM
